Source: patent publication EP1920756A1, “Cosmetic matrix for a preservative-free cosmetic formulation” (SYRIO PHARMA S.P.A., priority 2006, dated 2008)
“And” between values parts separate entries of the source, which are not always exact repeats. Identical values can stand only once. Like-named read-outs stand apart in the source and are kept apart here.

How the values were obtained:
[1] = in contact with healthy and intact skin; cited from earlier work
CD80 (B7.1) = conditions: for CD80 (MFI*): THP-1, 48 hours, corrected by the negative control
Protocol: (§1) The test consisted in evaluating the pro-sensitising stimulus on human monocytes. It was deemed appropriate to use a cell model to evaluate the immunological reactivity of typical immunological cells (monocytes in this case) exposed for a prolonged time (48h) to the tested product in two different concentrations
(§2) The test was thus performed on a monocytes cell line named THP-1, as such a cell type is highly involved in the immunological responses of skin, which is the target organ of the tested cream. […] Nickel is in fact able to trigger in vivo allergising-type immunological reactions (contact sensitising).
(§3) The technique is based on the fact that the recognition of the antigen by the TCR (T Cell Receptor) of T lymphocytes (signal 1) is not functional to the maturation of an effective immune response, if it doesn't occur at the membrane of an antigen-presenting cell able to provide an additional signal (signal 2 or costimulus) qualitatively necessary for the definition of the response type (humoral, cellular, etc). Both B7.1 and B7.2 (collectively: B7) are membrane glycoproteins which are present on the surface of several antigen-presenting cells (dendritic cells, Langerhans cells, monocytes/macrophages, other cell lines such as keratinocytes) and serve as costimula. In fact, both these molecules are ligands of a glycoprotein named CD28, which are present on the T lymphocyte membrane. The triggering of the ligand/receptor system CD28B7 avoids the T cell apoptosis (i.e. the programmed cell death) and cooperates to sustain their proliferation and differentiation. In the first steps of the "physiological" immune response, B7.2 is expressed constitutively and modulates both the Th1 and Th2 responses.
(§4) An increase in expression of these co-stimulatory molecules on monocytes is thus a signal of activation of an immune response the exposure in consequence of a potentially allergising antigen. Functionally, in fact, the expression of co-stimulatory molecules on this cell type corresponds to the competence acquisition for expressing the antigen in the typical location (skin in this case) in which a contact sensitization occurs in vivo.
(§5) They were subjected to a preliminary cytotoxicity screening on THP-1 cells to determinate the concentration at which the substance could be used in vitro without causing cell death, event which causes false results.
(§6) Cell growth culture medium exposed to the same experimental conditions was used as a negative control. […]
(§7) After exposure, the cells were examined for their viability by staining with Trypan Blue dye and by observing under microscope in a corpuscle-counter chamber, collected, washed in a isotonic buffer (PBS) and then marked with a fluoresceinated anti-B7.1 or B7.2 antibody. After further washings to remove the excess antibody, the cells were feeded in a flux cytofluorimeter (FACS, Fluorescence Activated Cell Sorter, Becton Dickinson, Mountain View, CA) for the MFI (Mean Fluorescence Intensity) evaluation, which was proportional to the number of molecules marked per cell and therefore representative of the expression level of the tested co-stimulatory molecules.
(§8) As control (basal fluorescence), the MFI of both untreated THP-1 cells (apart from washings in PBS) and THP-1 cells reacted with a fluoresceinated monoclonal antibody (such as the anti-B7.1 and anti-B7.2), but of irrelevant specificity (isotype-matched control) was evaluated.

CD86 (B7.2) = conditions: THP-1, 48 hours, corrected by the negative control
Protocol: as §1, §2, §3, §4, §5, §6, §7, §8

[2] = tested on: stabilized human keratinocytes (HaCaT cells); assay: Cytotoxicity evaluation with MTT method (UNI EN ISO 10993-5 rule); assay type: cell-based
Protocol: The test consisted in evaluating the cytotoxicity of the moisturizing cream […] aimed to be used on skin or on mucosae following the UNI EN ISO 10993-5 rule concerning the biological evaluation of medical devices. The cytotoxicity test was carried out towards the keratinocyte, the main cell component of skin and mucosae. […] The method is based on the fact that the mitochondrial dehydrogenases of viable cells are able to cleave the tetrazolium ring of MTT, leading to the formation of purple formazane crystals, which are insoluble in water. The crystals are dissolved in acidified isopropanol and the resulting purple solution is measured spectrophotometrically. An increase or decrease in viable cell number results in a concomitant change in the amount of formazan which is forming and can be considered as an indication of the degree of cytotoxicity caused by the exposure to the tested substances. The cell model employed for the in vitro test consisted of stabilized human keratinocytes (HaCaT cells). Cells were cultured in 24-well plates for 24 hours in DMEM + 10% FCS. Fresh culture medium was then added, supplemented with 10% FCS and containing a sample of the product to be tested so as to reach 6 final dilutions ranging from 5 to 0.15 mg/ml. For each sample of the cream […], three replica were performed. Untreated cells were used as negative control, and as positive control cells were treated with a surfactant with known toxicity, i.e. Sodium Lauryl Sulphate briefly referred to as SLS, dissolved in the culture medium in concentrations ranging from 0.5 mg/ml to 0.03 mg/ml. Specifically, samples with SLS amounts equal to 0.5, 0.25, 0.12, 0.06 and 0.03 mg/ml and […] amounts of 5, 2.5, 1.25, 0.6, 0.3, 0.15 mg/ml were prepared. At the end of treatment, the citotoxicity test (MTT) was carried out. The cells were then washed with washing solution (Dulbecco's Phosphate Buffered Saline). After removal of the solution, the MTT-culture medium was added to each well and the cells were incubated at 37°C. At the end of the incubation period, the MTT-culture medium was removed and a MTT solubilizing solution was added to each well. The plate was then stirred on a plate stirrer, while ensuring that all the crystals were dissolved and had formed a homogeneous solution. The absorbance was then read with a chromatometer equipped with a plate reader, by subtracting background reading. The result was expressed as: % cell survival = (OD treated cells × 100)/(OD untreated cells) [formula] […]

| SMILES | concentration able to cause an allergic reaction in most of the sensitive subjects [1] | increase in CD80, with respect to untreated controls (CD80 (B7.1); 4 µg/ml, data not shown) | CD80 (MFI*) (CD80 (B7.1); 10 µg/ml) | CD80 (MFI*) (CD80 (B7.1); 20 µg/ml) | CD86 (MFI*) (CD86 (B7.2); 10 µg/ml) | CD86 (MFI*) (CD86 (B7.2); 20 µg/ml) | Cell viability % (vs negative control) ([2]; Dose 0.03 mg/ml, MTT, Sulphate) | Cell viability % (vs negative control) ([2]; Dose 0.06 mg/ml, MTT, Sulphate) | Cell viability % (vs negative control) ([2]; Dose 0.12 mg/ml, MTT, Sulphate) | Cell viability % (vs negative control) ([2]; Dose 0.25 mg/ml, MTT, Sulphate) | Cell viability % (vs negative control) ([2]; Dose 0.5 mg/ml, MTT, Sulphate) | IC50 ([2]; Homo sapiens, read-out: concentration of 50% inhibition of cell growth (IC50), HaCaT, MTT, theoretical value from regression curve of dose-response) | concentration of 50% inhibition of cell growth (IC50) ([2]; MTT, theoretical value from regression curve of dose-response, Sulphate) |
| --- | --- | --- | --- | --- | --- | --- | --- | --- | --- | --- | --- | --- | --- |
| O.O.O.O.O.O.O=S(=O)([O-])[O-].[Ni+2] [Nickel sulphate, Nickel Sulphate (NiSO46H2O)] | above 100 ppm | detectable increase | 19.85 and 18.33 | 29.00 and 33.48 | 37.35 and 33.26 | 77.12 and 87.92 |  |  |  |  |  |  |  |
| CCCCCCCCCCCCOS(=O)(=O)[O-].[Na+] [SLS, Sodium Lauryl Sulphate] |  |  |  |  |  |  | 87.6% and 94.7% and 98.5% and 92.7% | 61.0% and 79.6% and 76.7% and 73.9% | 2.5% and 3.9% and 0.2% and 1.9% | 2.3% and 2.9% and 0.1% and 1.5% | 2.3% and 2.2% and 0.2% and 1.2% | 60 µg/mL | 70 µg/mL and 67 µg/mL |
